From US20250082657A1, “CONJUGATES OF CHEMOTHERAPY AGENTS AND TISSUE-BINDING SMALL MOLECULES, COMPOSITIONS AND METHODS THEREOF” (CANWELL BIOTECH LIMITED, priority 2022, published 2025) come the findings set out here.

Where two headings read alike, the source gives them in different places.

What is called IC50 is the midpoint of a concentration-inhibition curve. Read a high IC50 as a need for much substance. A word on the half-life: it is how long it takes for the measured level to halve. High values mean slow decline, low ones rapid decline. The AUC(0-t) is the area under the concentration-time curve up to a stated or last time point. Read a low AUC(0-t) as low exposure. For orientation: Kp means the ratio of the level in a tissue or fluid to that in plasma or blood.

Data set [1] concerns MC38. Kind of data set: Cellular IC50 in MC38 tumor cell line (CellTiter-Glo). In kind it is cell-based. The settings on record: 72 h incubation. Here is the method: (§1) The cellular inhibition was determined in three assays: U87MG, A549 and MC38. Cells were recovered and cultured in appropriate medium supplemented with 10% fetal bovine serum and 100 U/mL penicillin G sodium, and maintained in cell incubators (37° C., 5% CO2). Before testing, cells in culture dishes were rinsed with Phosphate Buffered Solution, detached with Trypsin. Dilute and adjust the cell number with the culture medium, add the cell suspension to the 96 well cell plate. Cells were maintained in incubators overnight. In T0 control plate, cells were added with 100 μL CellTiter-Glo reagent, balance at room temperature for 10 minutes, and read the chemiluminescence value with envision.
(§2) In the testing plate, compounds were dissolved with corresponding solvent and diluted gradiently. Diluted compound solution was added to a 96 well plate with cells. After incubation of 72 h, cells were added with 100 μL CellTiter-Glo reagent, balanced at room temperature for 10 minutes, and read the chemiluminescence value with envision. IC50 was calculated using the GraphPad Prism software package (Prism 6 for Windows, Version 6.0, GraphPad Software Inc., San Diego, CA).
A general note: ATP-based viability assays read luminescence as a measure of living cells.

For data set [2], the system named is U87MG. In words: Cellular IC50 in U87MG tumor cell line (CellTiter-Glo). The format is cell-based. The settings on record: U87MG cells, 72 h incubation. As for the experimental part: as §1, §2
Data set [3] relates to A549. In words: Cellular IC50 in A549 tumor cell line (CellTiter-Glo). The format is cell-based. The following applies: A549 cells, 72 h incubation. Here is the method: as §1, §2
For data set [4] the following is noted: male, CD-1, mouse, in vivo.
Protocol: (§3) Pharmacokinetic parameters were determined in male CD-1 mice (Shanghai Jihui Laboratory Animal Care Co., Ltd., 6-8 weeks old). Animals were maintained under a 12 hr light/dark cycle. Animals had free access to food and water during the study.
(§4) For intravenous, compounds were formulated as a solution (in 5% DMSO+10% Solutol HS15+85% (20% HP-β-CD in water)) in 5 mL/kg dosing volume and administered via tail vein. For subcutaneous, compounds were formulated as a solution (in 5% DMSO+10% Solutol HS15+85% (20% HP-β-CD in water)) in 10 mL/kg dosing volume or (in 0.5% MC+1% Pluronic F68 in water) in 50 μL/mouse dosing volume and administered via subcutaneous puncture.
(§5) Semi-serial blood samples (about 110 μL) were taken from animal at 0.083, 0.25, 0.5, 1, 2, 4, 8 and 24 hr for IV group and 0.5, 2, 4, 8, 24, 48 and 96 hr for SC group. Samples were held on ice for no longer than 15 minutes before centrifugation (2000 g, 5 min, 4° C.) within 15 minutes post sampling. Plasma was snap frozen in dry ice and then transferred into −70° C. freezer for long term storage until LC-MS/MS analysis.
(§6) Tissue collection for SC group at 0.5, 2, 4, 8, 24, 48 and 96 hr. After animals were anesthetized and exsanguinated, tissue samples (including muscle and skin) were collected and weighted, and then snap frozen in liquid nitrogen and further stored at −70° C. for long term storage until LC-MS/MS analysis. Tissue samples were homogenized under freezing conditions.
(§7) PK parameters were generated from LC-MS/MS data using Phoenix WinNonlin 8.2 software.
Data set [5] is described as follows: physchem. The following applies: buffer, pH 7.4.
Protocol: (§8) Test compounds spiking solution: 1 mM test compounds spiking solution A: Add 10 μL of 10 mM test compounds stock solution to 90 μL DMSO. • 2. Add 396 μL of buffer into the tubes designated for different time points. Pre-warm the samples at 37° C. for 10 min. • 3. Add 4 μL of spiking solution A into the wells designated as 0 min (or 15, 45, 90, 120 min) containing 396 μL of buffer, then start timing count down. • 4. At each time point, add 1200 μL ACN containing IS into the tubes. • 5. Samples are centrifuged at 10,000 rpm for 5 min, then 100 μL of supernatant are ready for LC-MS/MS analysis.
The nature of data set [6]: Chemical stability in PBS (pH 7.4). The following applies: PBS buffer.
Protocol: as §8
Data set [7] is described as follows: in vivo. The following applies: male, CD-1, mouse, sc, 5 mg/kg.
Protocol: as §3, §4, §5, §6, §7
For data set [8] the following is noted: buffer.
Protocol: as §8
Data set [9] in a line: Pharmacokinetics in male CD-1 mice (plasma and tissue, LC-MS/MS). The following applies: CD-1, mouse.
Protocol: as §3, §4, §5, §6, §7
The mark [10] stands for this setting: Mus musculus, MC-38, MC38 cells.

Regarding `CCc1c2c(nc3ccc(O)cc13)-c1cc3c(c(=O)n1C2)COC(=O)[C@]3(O)CC` [Compound 1-1, SN-38, reference compound], the IC50 in data set [1] (MC38 cells) is 21.2 nM; in data set [2], 13.6 nM; in data set [3], 99.5 nM.
With `CCc1c2c(nc3ccc(OC(=O)CCCc4ccc(I)cc4)cc13)-c1cc3c(c(=O)n1C2)COC(=O)[C@]3(O)CC` [Compound 1], in data set [4] (3 mg/kg), the Tissue/Plasma ratio was determined as 171.8 and the “T½” value stood at 10.3 h. Also, the half-life at 10 µM in data set [5] worked out at 19.7 h.
In data set [5], `CCc1c2c(nc3ccc(OC(=O)C(C)CCc4ccc(I)cc4)cc13)-c1cc3c(c(=O)n1C2)COC(=O)[C@]3(O)CC` (stereo partly shown) [Compound 2] returned a half-life at 10 µM of 23.1 h.
`CCc1c2c(nc3ccc(OC(=O)NCCc4ccc(I)cc4)cc13)-c1cc3c(c(=O)n1C2)COC(=O)[C@]3(O)CC` [Compound 3, (S)-4,11-diethyl-4-hydroxy-3,14-dioxo-3,4,12,14-tetrahydro-1H-pyrano [3′,4′:6,7]indolizino[1,2-b]quinolin-9-yl(4-iodophenethyl)carbamate] yielded a half-life at 10 µM in [6] of 0.85 h.
Same read-out and setting: the result for `CCc1c2c(nc3ccc(OC(=O)N(C)CCc4ccc(I)cc4)cc13)-c1cc3c(c(=O)n1C2)COC(=O)[C@]3(O)CC` [Compound 4, (S)-4,11-diethyl-4-hydroxy-3,14-dioxo-3,4,12,14-tetrahydro-1H-pyrano[3′,4′:6,7]indolizino[1,2-b]quinolin-9-yl(4-iodophenethyl)(methyl)carbamate] reads 3.58 h.
`CCc1c2c(nc3ccc(OC(=O)[C@@H](C)c4ccc(CC(C)C)cc4)cc13)-c1cc3c(c(=O)n1C2)COC(=O)[C@]3(O)CC` [Compound 8, (S)-4,11-diethyl-4-hydroxy-3,14-dioxo-3,4,12,14-tetrahydro-1H-pyrano [3′,4′:6,7]indolizino[1,2-b]quinolin-9-yl(S)-2-(4-isobutylphenyl)propanoate] showed an exposure AUC(0-t) in data set [7] of 11800 µg·h/mL. In [7], this molecule had a half-life of 44.1 h. In addition, in data set [4] (sc, 5 mg/kg), the “T½” value was >96 h. Further, the half-inhibitory concentration (IC50) amounted to 22.7 nM in data set [1] (setting [10]); 13.4 nM in data set [2] (Homo sapiens, U-87 MG); 208 nM in data set [3] (Homo sapiens). Also, the “Stability (PBS, pH 7.4) T½ (min)” value in data set [8] is recorded as “∞”.
As for `CC(C)Cc1ccc([C@H](C)C(=O)O)cc1` [Compound 8-1], the half-maximal inhibitory concentration (IC50) in data set [1] (setting [10]) is > 10000 nM.
Consider `CC(C)C[C@H](NC(=O)[C@H](Cc1ccccc1)NC(=O)c1cnccn1)B(O)O` [Compound 9-7, Valcade, reference compound], for which the IC50 in data set [1] (setting [10]) turned out to be 16.3 nM; in [2] (Homo sapiens, U-87 MG), 6.89 nM; in data set [3] (Homo sapiens) it was 9.36 nM.
In the case of `CC(C)Cc1ccc([C@H](C)C(=O)NCCCC[N+]23CC(=O)O[B-]2([C@H](CC(C)C)NC(=O)[C@H](Cc2ccccc2)NC(=O)c2cnccn2)OC(=O)C3)cc1` (stereo partly drawn) [Compound 16, N-((S)-1-(((R)-1-(6-(4-((S)-2-(4-isobutylphenyl)propanamido)butyl)-4,8-dioxo-1,3,6,2-dioxazaborocan-2-yl)-3-methylbutyl)amino)-1-oxo-3-phenylpropan-2-yl)pyrazine-2-carboxamide], the IC50 is 15.9 nM in data set [1] (setting [10]); 7.27 nM in [2] (Homo sapiens, U-87 MG); 10.7 nM in [3] (Homo sapiens). The same molecule showed a half-life in [9] (in vivo, sc, 1 mg/kg) of 93.2 h. Also, the AUC(0-t) in data set [9] (plasma, sc, 1 mg/kg) came out at 0.165 µg·h/mL; in data set [9] (tissue (muscle or skin, not specified), sc, 1 mg/kg), 60.3 µg·h/mL. Besides, the Kp in data set [9] (tissue (muscle or skin, not specified) / plasma, subcutaneous, 1 mg/kg) worked out at 365.
Turning to `O=C(CCCc1ccc(I)cc1)OCn1cc(F)c(=O)[nH]c1=O` [Compound 28, (5-fluoro-2,4-dioxo-3,4-dihydropyrimidin-1(2H)-yl)methyl 4-(4-iodophenyl) butanoate], in data set [6], the half-life at 10 µM was found to be 8.4 h. The AUC(0-t) in data set [9] (tissue (muscle or skin, not specified which), sc, 10 mg/kg) was found to be 37.6 µg·h/mL. This molecule also showed a half-life in data set [9] (tissue (muscle or skin, not specified which), subcutaneous, 10 mg/kg) of 11.3 h.
Molecule `CC(=O)O[C@@]12CO[C@@H]1C[C@H](O)[C@@]1(C)C(=O)[C@H](O)C3=C(C)[C@@H](OC(=O)[C@H](OC(=O)CCCc4ccc(I)cc4)[C@@H](NC(=O)OC(C)(C)C)c4ccccc4)C[C@@](O)([C@@H](OC(=O)c4ccccc4)[C@H]21)C3(C)C` [Compound 30, (2aR,4S,4aS,6R,9S,11 S,12S,12aR,12bS)-12b-acetoxy-9-(((2R,3S)-3-((tert-butoxycarbonyl)amino)-2-((4-(4-iodophenyl)butanoyl)oxy)-3-phenylpropanoyl)oxy)-4,6,11-trihydroxy-4a,8,13,13-tetramethyl-5-oxo-2a,3,4,4a,5,6,9,10,11,12,12a,12b-dodecahydro-1H-7,11-methanocyclodeca[3,4]benzo[1,2-b]oxet-12-yl benzoate] registered a half-life in data set [5] of 13.4 h.
